Data reported in US6329531A, “Optical diagnostic agents for diagnosis of neurodegenerative diseases by means of near infrared radiation (NIR radiation)” (Schering AG, priority 1996, dated 2001).
Structures can show the parent of a compound that is named as a salt.

Assay: Absorption and fluorescence maxima of the dye in water
Assay type: physicochemical
Conditions: H2O

SMILES | λMax.absorption (H2 O) [nm] | λMax.fluorescence (H2 O) [nm]
CC1(C)C(=CC=CC=CC=CC2=[N+](CCCCS(=O)(=O)[O-])c3ccc(C(=O)NC4OC(CO)C(OC5OC(CO)C(OC6OC(CO)C(O)C(O)C6O)C(O)C5O)C(O)C4O)cc3C2(C)C)N(CCCCS(=O)(=O)O)c2ccccc21 (stereo not shown) [Example 5] | 748 | 779
CC1(C)C(=CC=CC=CC=CC2=[N+](CCCCS(=O)(=O)[O-])c3ccc(C(=O)N[C@H]4C(O)O[C@H](CO)[C@@H](O)[C@@H]4OS(=O)(=O)O)cc3C2(C)C)N(CCCCS(=O)(=O)O)c2ccc(C(=O)N[C@H]3C(O)O[C@H](CO)[C@@H](O)[C@@H]3OS(=O)(=O)O)cc21 (stereo partly drawn) [Example 3, Bis-1,1'-(4-Sulfobutyl)indotricarbocyanine-5,5'-dicarboxylic acid-di-α-D-glucosamide-di-3"-sulfate, trisodium salt] | 754 | 790
CC1(C)C(=CC=CC=CC=CC2=[N+](CCCCS(=O)(=O)[O-])c3ccc(C(=O)NCC(COS(=O)(=O)O)OS(=O)(=O)O)cc3C2(C)C)N(CCCCS(=O)(=O)O)c2ccccc21 (stereo not shown) [Example 1, N-(2,3-disulfato)propyl-1,1'-bis-(4-sulfobutyl)indotricarbocyanine-5-carboxylic acid amide, trisodium salt] | 746 | 780

The remaining lines, values ahead:

λMax.absorption (H2 O) [nm] | λMax.fluorescence (H2 O) [nm] | SMILES
746 | 779 | CC1(C)C(=CC=CC=CC=CC2=[N+](CCCCS(=O)(=O)[O-])c3ccc(C(=O)N[C@H]4C(O)O[C@H](CO)[C@H](O)[C@@H]4O[C@@H]4O[C@H](C(=O)O)[C@@H](O)[C@H](O)[C@H]4O)cc3C2(C)C)N(CCCCS(=O)(=O)[O-])c2ccccc21.[Na+] (stereo partly shown) [Example 4, N-Chondrosin-bis-1,1'-(4-sulfobutyl)indotricarbocyanine-5-carboxylic acid amide, sodium salt]
745 | 779 | CC1(C)C(=CC=CC=CC=CC2=[N+](CCCCS(=O)(=O)[O-])c3ccc(C(=O)N[C@H]4C(O)O[C@H](CO)[C@@H](O)[C@@H]4OS(=O)(=O)O)cc3C2(C)C)N(CCCCS(=O)(=O)O)c2ccccc21 (stereo partly drawn) [Example 2, Bis-1,1'-(4-Sulfobutyl)indotricarbocyanine-5-carboxylic acid-α-D-glucosamide-3"-sulfate, disodium salt]
